Assay results as given in patent US20070128217A1 (priority 2003, published 2007).

Tests used:
[1] = tested on: antibodies in sera from SARS patients (sera 1a, 1b, 2, 6, 37, 62, London, SARS-yellow, SARS-green); type: binding, human; set-up: Binding of serum 6 to linear peptides of protein X1 of SARS-CoV Urbani / Binding of serum 37 to linear peptides of protein X1 of SARS-CoV Urbani / Binding of serum 6 to looped/cyclic peptide (PEPSCAN-ELISA) / Binding of serum 37 to looped/cyclic peptide (PEPSCAN-ELISA) / Binding of serum 37 to looped/cyclic peptides of protein X1 of SARS-CoV Urbani / Binding of serum 6 to linear peptides of protein X2 / Binding of serum 37 to linear peptides of protein X2 / Binding of serum 37 to looped/cyclic peptides of protein X2 of SARS-CoV Urbani / Binding of serum 6 to linear peptides of protein M of SARS-CoV Urbani / Binding of serum 37 to linear peptides of protein M of SARS-CoV Urbani / Binding of serum 6 to looped/cyclic peptides of protein M of SARS-CoV Urbani / Binding of serum 37 to looped/cyclic peptides of protein M of SARS-CoV Urbani / Binding of serum 6 to linear peptides of protein X3 of SARS-CoV Urbani / Binding of serum 37 to linear peptides of protein X3 of SARS-CoV Urbani / Binding of serum 37 to looped/cyclic peptides of protein X3 of SARS-CoV Urbani / Binding of serum 6 to linear peptides of protein X4 of SARS-CoV Urbani / Binding of serum 37 to linear peptides of protein X4 of SARS-CoV Urbani / Binding of serum 37 to looped/cyclic peptides of protein X4 of SARS-CoV Urbani / Binding of serum 6 to linear peptides of protein X5 of SARS-CoV Urbani / Binding of serum 37 to linear peptides of protein X5 of SARS-CoV Urbani / Binding of serum 37 to looped/cyclic peptides of protein X5 of SARS-CoV Urbani / Binding of serum 6 to linear peptides of protein N of SARS-CoV Urbani / Binding of serum 37 to linear peptides of protein N of SARS-CoV Urbani / Binding of serum 6 to linear peptide (PEPSCAN-ELISA) / Binding of serum 1a to looped/cyclic peptides of protein N of SARS-CoV Urbani / Binding of serum 1b to looped/cyclic peptides of protein N of SARS-CoV Urbani / Binding of serum 2 to looped/cyclic peptides of protein N of SARS-CoV Urbani / Binding of serum 6 to looped/cyclic peptides of protein N of SARS-CoV Urbani / Binding of serum 37 to looped/cyclic peptides of protein N of SARS-CoV Urbani / Binding of serum 62 to looped/cyclic peptides of protein N of SARS-CoV Urbani / Binding of serum London to looped/cyclic peptides of protein N of SARS-CoV Urbani / Binding of serum SARS-green to looped/cyclic peptides of protein N of SARS-CoV Urbani: unit not given here
[2] = tested on: control sera (pooled serum of ten healthy LUMC hospital workers; commercial negative donor pooled serum from the Dutch bloodbank); type: binding, human; set-up: Binding of Control serum LUMC to linear peptides / Binding of Control serum Blood-bank to linear peptides / Binding of Control serum LUMC to looped peptides / Binding of Control Serum Blood-Bank to Looped peptides / Binding of Control serum LUMC to linear peptides of the protein M of SARS-CoV Urbani / Binding of Control serum Blood-bank to linear peptides of the protein M of SARS-CoV Urbani / Binding of Control serum LUMC to looped peptides of the protein M of SARS-CoV Urbani / Binding of Control Serum Blood-Bank to Looped peptides of the protein M of SARS-CoV Urbani: unit not given here
[3] = tested on: rabbit serum obtained by immunizing a rabbit with the SARS-CoV strain Frankfurt 1; type: binding; set-up: Binding of a rabbit serum to linear peptides / Binding of a rabbit serum to looped peptides / Rabbit serum linear peptides / Rabbit serum looped peptides / Binding of a rabbit serum to linear peptides of protein N of SARS-CoV Urbani (Rabbit serum linear peptides) / Binding of a rabbit serum to looped/cyclic peptides of protein N of SARS-CoV Urbani (Rabbit serum looped peptides): unit not given here
[4] = tested on: recombinant human anti-SARS-CoV antibody 03-018; type: binding; set-up: Binding of antibody 03-018 to linear peptides of the N protein of SARS-CoV Urbani / Binding of antibody 03-018 to looped/cyclic peptides of the N protein of SARS-CoV Urbani: unit not given here

| Sequence | Binding of serum 1a to linear peptides of protein N of SARS-CoV Urbani [1] | Binding of serum 1a to looped/cyclic peptides of protein N of SARS-CoV Urbani [1] | Binding of serum 1b to linear peptides of protein N of SARS-CoV Urbani [1] | Binding of serum 1b to looped/cyclic peptides of protein N of SARS-CoV Urbani [1] | Binding of serum 2 to linear peptides of protein N of SARS-CoV Urbani [1] | Binding of serum 2 to looped/cyclic peptides of protein N of SARS-CoV Urbani [1] | Binding of serum 6 to linear peptides of protein N of SARS-CoV Urbani [1] | Binding of serum 6 to looped/cyclic peptides of protein N of SARS-CoV Urbani [1] | Binding of serum 37 to linear peptides of protein N of SARS-CoV Urbani [1] | Binding of serum 37 to looped/cyclic peptides of protein N of SARS-CoV Urbani [1] | Binding of serum 62 to linear peptides of protein N of SARS-CoV Urbani [1] | Binding of serum 62 to looped/cyclic peptides of protein N of SARS-CoV Urbani [1] | Binding of serum London to linear peptides of protein N of SARS-CoV Urbani [1] | Binding of serum London to looped/cyclic peptides of protein N of SARS-CoV Urbani [1] | Binding of serum SARS-green to linear peptides of protein N of SARS-CoV Urbani [1] | Binding of serum SARS-yellow to linear peptides of protein N of SARS-CoV Urbani [1] | Binding of a rabbit serum to linear peptides of protein N of SARS-CoV Urbani (Rabbit serum linear peptides) [3] | Binding of a rabbit serum to looped/cyclic peptides of protein N of SARS-CoV Urbani (Rabbit serum looped peptides) [3] | Binding of antibody 03-018 to linear peptides of the N protein of SARS-CoV Urbani [4] | Binding of antibody 03-018 to looped/cyclic peptides of the N protein of SARS-CoV Urbani [4] | further results |
| --- | --- | --- | --- | --- | --- | --- | --- | --- | --- | --- | --- | --- | --- | --- | --- | --- | --- | --- | --- | --- | --- |
| NPNNNAATVLQLPQG | 0.4 | 0.4 | 0.2 | 0.4 | 0.4 | 0.5 | 0.3 | 0.3 | 0.8 | 0.9 | 0.9 | 0.9 | 0.8 | 0.5 | 0.6 | 0.8 | 0.1 | 0.3 | 0.1 | 0.3 | Binding of serum SARS-green to looped/cyclic peptides of protein N of SARS-CoV Urbani [1]: 0.7; Binding of serum SARS-yellow to looped/cyclic peptides of protein N of SARS-CoV Urbani [1]: 0.5; Binding of Control Serum Blood-Bank to Looped peptides [2]: 0.8; Binding of Control serum Blood-bank to linear peptides [2]: 0.9; Binding of Control serum LUMC to linear peptides [2]: 0.9; Binding of Control serum LUMC to looped peptides [2]: 0.9 |
| QGVPINTNSGPDDQI | 0.3 | 0.5 | 0.2 | 0.4 | 0.2 | 0.6 | 0.2 | 0.4 | 0.9 | 0.6 | 0.6 | 1.0 | 0.5 | 0.6 | 0.6 | 0.6 | 0.2 | 0.8 | 0.1 | 0.1 | Binding of serum SARS-green to looped/cyclic peptides of protein N of SARS-CoV Urbani [1]: 1.3; Binding of serum SARS-yellow to looped/cyclic peptides of protein N of SARS-CoV Urbani [1]: 1.7; Binding of Control Serum Blood-Bank to Looped peptides [2]: 1.1; Binding of Control serum Blood-bank to linear peptides [2]: 0.6; Binding of Control serum LUMC to linear peptides [2]: 0.6; Binding of Control serum LUMC to looped peptides [2]: 0.8 |
| AIKLDDKDPQFKDNV | 0.2 | 0.3 | 0.1 | 0.2 | 0.2 | 0.3 | 0.2 | 0.2 | 0.8 | 0.5 | 0.9 | 0.4 | 0.6 | 0.4 | 0.7 | 0.6 | 0.1 | 0.3 | 0.1 | 0.2 | Binding of serum SARS-green to looped/cyclic peptides of protein N of SARS-CoV Urbani [1]: 0.4; Binding of serum SARS-yellow to looped/cyclic peptides of protein N of SARS-CoV Urbani [1]: 0.2; Control Serum Blood-Bank Looped peptides [2]: 0.5; Control serum Blood-bank linear peptides [2]: 0.7; Control serum LUMC linear peptides [2]: 0.8; Control serum LUMC looped peptides [2]: 0.5 |
| IAQFAPSASAFFGMS | 0.2 | 0.4 | 0.1 | 0.2 | 0.1 | 0.4 | 0.1 | 0.3 | 0.6 | 0.7 | 0.5 | 0.6 | 0.4 | 0.4 | 0.2 | 0.6 | 0.2 | 0.4 | 0.1 | 0.3 | Binding of serum SARS-green to looped/cyclic peptides of protein N of SARS-CoV Urbani [1]: 0.4; Binding of serum SARS-yellow to looped/cyclic peptides of protein N of SARS-CoV Urbani [1]: 0.4; Control Serum Blood-Bank Looped peptides [2]: 0.8; Control serum Blood-bank linear peptides [2]: 0.7; Control serum LUMC linear peptides [2]: 0.6; Control serum LUMC looped peptides [2]: 0.6 |
| QPLPQRQKKQPTVTL | 0.2 | – | 0.2 | – | 0.3 | – | 0.4 | – | 0.6 | – | 0.6 | – | 1.3 | – | 0.2 | 1.3 | 0.1 | 0.7 | 0.1 | 0.3 | Recognition of the peptide by sera of SARS-CoV infected individuals, and form (linear, looped/cyclic) in which it is recognized [1]: recognized in looped/cyclic form; Control Serum Blood-Bank Looped peptides [2]: 1.0; Control serum Blood-bank linear peptides [2]: 0.6; Control serum LUMC linear peptides [2]: 0.5; Control serum LUMC looped peptides [2]: 0.9 |
